This experiment has as its target T1, mu opiate receptor (MOR) (Rattus norvegicus, UniProt P33535).
T1 construct: from tissue; host or cells: striatum (membrane preparation)
The experiment is described as follows: MOR agonist activity using [35S]GTPgS binding assay in striatal membranes. It counts as biochemical. The protocol:
To assess the mu opiate receptor (MOR) agonist activity of positive compounds from the FLNA screening, compounds were tested in a [^35S]GTPgS binding assay using striatal membranes. […] This assay measures a functional consequence of receptor occupancy at one of the earliest receptor-mediated events. The assay permits for traditional pharmacological parameters of potency, efficacy and antagonist affinity, with the advantage that agonist measures are not subjected to amplification or other modulation that may occur when analyzing parameters further downstream of the receptor.
Thus, striatal tissue was homogenized in 10 volumes of ice cold 25 mM HEPES buffer, pH 7.4, which contained 1 mM EGTA, 100 mM sucrose, 50 mg/ml leupeptin, 0.04 mM PMSF, 2 mg/ml soybean trypsin inhibitor and 0.2% 2-mercaptoethanol. The homogenates were centrifuged at 800×g for 5 minutes and the supernatants were centrifuged at 49,000×g for 20 minutes. The resulting pellets were suspended in 10 volume of reaction buffer, which contained 25 mM HEPES, pH 7.5, 100 mM NaCl, 50 mg/ml leupeptin, 2 mg/ml soybean trypsin inhibitor, 0.04 mM PMSF and 0.02% […].
The resultant striatal membrane preparation (200 mg) was admixed and maintained (incubated) at 30° C. for 5 minutes in reaction buffer as above that additionally contained 1 mM MgCl2 and 0.5 nM [^35S]GTPgS (0.1 mCi/assay, PerkinElmer Life and Analytical Sciences) in a total volume of 250 ml and continued for 5 minutes in the absence or presence of 0.1-10 mM of an assayed compound of interest. The reaction was terminated by dilution with 750 ml of ice-cold reaction buffer that contained 20 mM MgCl2 and 1 mM EGTA and immediate centrifugation at 16,000×g for 5 minutes.
The resulting pellet was solubilized by sonicating for 10 seconds in 0.5 ml of immunoprecipitation buffer containing 0.5% digitonin, 0.2% sodium cholate and 0.5% NP-40. Normal rabbit serum (1 ml) was added to 1 ml of lysate and incubated at 25° C. for 30 minutes. Nonspecific immune complexes were removed by incubation with 25 ml of protein A/G-conjugated agarose beads at 25° C. for 30 minutes followed by centrifugation at 5,000×g at 4° C. for 5 minutes. The supernatant was divided and separately incubated at 25° C. for 30 minutes with antibodies raised against Gao proteins (1:1,000 dilutions).
The immunocomplexes so formed were collected by incubation at 25° C. for 30 minutes with 40 ml of agarose-conjugated protein A/G beads and centrifugation at 5,000×g at 4° C. for 5 minutes. The pellet was washed and suspended in buffer containing 50 mM Tris-HCl, pH 8.0, and 1% NP-40. The radioactivity in the suspension was determined by liquid scintillation spectrometry. […] DAMGO (1 or 10 mM) was used as a positive control.
Background: Binding of GTPγS marks nucleotide exchange on a G protein.

[1] abbreviates: 0.1 μM compound as agonist, Series C-1 table.
Setting [2] is: 1 μM compound as agonist, Series C-1 table.
Where [3] appears, read: 0.1 μM compound as agonist, Series C-2 table.
[4] abbreviates: 1 μM compound as agonist, Series C-2 table.

T1 sequence (P33535 whole entry): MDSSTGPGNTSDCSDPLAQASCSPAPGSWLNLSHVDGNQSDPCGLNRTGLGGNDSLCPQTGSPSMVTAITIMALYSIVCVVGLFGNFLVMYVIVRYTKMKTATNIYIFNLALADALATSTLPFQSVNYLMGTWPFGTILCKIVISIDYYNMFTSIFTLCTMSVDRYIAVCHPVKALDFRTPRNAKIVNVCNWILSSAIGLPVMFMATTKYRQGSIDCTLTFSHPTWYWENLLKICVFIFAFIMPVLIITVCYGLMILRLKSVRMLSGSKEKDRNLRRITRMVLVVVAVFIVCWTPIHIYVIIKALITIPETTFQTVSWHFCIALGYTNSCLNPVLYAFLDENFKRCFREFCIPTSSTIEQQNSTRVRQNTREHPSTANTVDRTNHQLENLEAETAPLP

In the case of `O=C(c1ccc([N+](=O)[O-])cc1)N1CCC2(CC1)OCCN2S(=O)(=O)c1ccc([N+](=O)[O-])cc1` [Compound C0022], the “MOR agonist activity ([35S]GTPgS binding to Gao)” value (“MOR agonist activity” for short) amounted to 194.3% under setting [1]; 13.4% (1 μM + BFNA, Series C-1 table); 328.7% under setting [2].
Take `CNc1ccc(S(=O)(=O)N2CCC3(CC2)OCCN3S(=O)(=O)c2ccc(NC)cc2)cc1` [Compound C0024]: the “MOR agonist activity” value came out at 178.4% under setting [1]; 59.3% (1 μM + BFNA, Series C-1 table); 229.6% under setting [2].
As to `O=S(=O)(c1ccc(Br)cc1)N1CCC2(CC1)OCCN2S(=O)(=O)c1ccc(Br)cc1` [Compound C0025], the “MOR agonist activity” value is, setting by setting: under setting [1], 235.7%; (1 μM + BFNA, Series C-1 table) 80.2%; under setting [2], 320.7%.
Take `COc1ccc(S(=O)(=O)N2CCC3(CC2)NCCO3)cc1` [Compound C0026]: the “MOR agonist activity” value came to 207.2% under setting [3]; 21.2% (1 μM + BFNA, Series C-2 table); 288.4% under setting [4].
In the same order, the values of `COc1ccc(S(=O)(=O)N2CCOC23CCNCC3)cc1` [Compound C0027] are 233.2%, 72.2% and 313.9%.
In the case of `COC(=O)c1ccc(S(=O)(=O)N2CCC3(CC2)OCCN3S(=O)(=O)c2ccc(C(=O)OC)cc2)cc1` [Compound C0028], the “MOR agonist activity” value under setting [1] is listed as 93.9%; the “MOR agonist activity” value (1 μM + BFNA, Series C-1 table) is 78.4%; the “MOR agonist activity” value under setting [2] is 132.4%.
In the same order, the values of `O=S(=O)(c1ccc(F)cc1)N1CCC2(CC1)OCCN2S(=O)(=O)c1ccc(F)cc1` [Compound C0029] are 175.4%, 16.6% and 308.8%.
As for `CCCCc1ccc(S(=O)(=O)N2CCC3(CC2)OCCN3S(=O)(=O)c2ccc(CCCC)cc2)cc1` [Compound C0030], the “MOR agonist activity” value is, setting by setting: under setting [1], 150.3%; (1 μM + BFNA, Series C-1 table) 95.0%; under setting [2], 226.8%.
In the same order, the values of `O=C(c1ccc([N+](=O)[O-])cc1)N1CCC2(CC1)OCCN2C(=O)c1ccc([N+](=O)[O-])cc1` [Compound C0032] are 145.4%, 80.9% and 202.0%.
In the same order, the values of `O=C(c1ccc([N+](=O)[O-])cc1)N1CCC2(CC1)OCCN2S(=O)(=O)c1ccc([N+](=O)[O-])cc1` [Compound C0033] are 134.5%, 76.6% and 186.4%.
For `NS(=O)(=O)c1ccc(S(=O)(=O)N2CCC3(CC2)OCCN3S(=O)(=O)c2ccc(S(N)(=O)=O)cc2)cc1` [Compound C0034] the same measures were 103.6%, 80.1% and 167.9%.
In the case of `O=[N+]([O-])c1ccc(S(=O)(=O)N2CCC3(CC2)NCCO3)cc1` [Compound C0040], the “MOR agonist activity” value is given as 145.8% under setting [3]; 90.4% (1 μM + BFNA, Series C-2 table); 308.3% under setting [4].
As to `COc1ccc(NC(=O)N2CCC3(CC2)OCCN3S(=O)(=O)c2ccc(OC)cc2)cc1` [Compound C0041], the “MOR agonist activity” value is listed as 186.1% under setting [1]; 95.5% (1 μM + BFNA, Series C-1 table); 244.4% under setting [2].
In the same order, the values of `O=C(OCc1ccccc1)c1ccc(S(=O)(=O)N2CCC3(CC2)OCCN3S(=O)(=O)c2ccc(C(=O)OCc3ccccc3)cc2)cc1` [Compound C0042] are 167.1%, 110.6% and 260.9%.
Regarding `COc1ccc(S(=O)(=O)N2CCOC23CCN(C(=O)OC(C)(C)C)CC3)cc1` [Compound C0043], the “MOR agonist activity” value reads like this: under setting [3], 175.4%; (1 μM + BFNA, Series C-2 table) 83.3%; under setting [4], 242.6%.
Consider `O=[N+]([O-])c1ccc(S(=O)(=O)N2CCC3(CC2)NCCS3)cc1` [Compound C0044], for which the “MOR agonist activity” value is, setting by setting: under setting [3], 173.7%; (1 μM + BFNA, Series C-2 table) 59.1%; under setting [4], 280.1%.
For `O=[N+]([O-])c1ccc(S(=O)(=O)N2CCC3(CC2)NCCCO3)cc1` [Compound C0045] the same measures were 149.2%, 105.3% and 238.8%.
As to `CC(=O)c1ccc(S(=O)(=O)N2CCOC23CCNCC3)cc1` [Compound C0046], the “MOR agonist activity” value amounted to 286.2% under setting [3]; 156.8% (1 μM + BFNA, Series C-2 table); 492.9% under setting [4].
For the compound `COc1ccc(S(=O)(=O)N2CCOC23CCN(S(=O)(=O)c2ccc(C(C)=O)cc2)CC3)cc1` [Compound C0047], the “MOR agonist activity” value is reported as 142.2% under setting [1]; 80.1% (1 μM + BFNA, Series C-1 table); 206.1% under setting [2].
For `COc1ccc(S(=O)(=O)N2CCC3(CC2)OCCN3S(=O)(=O)c2ccc(C(C)=O)cc2)cc1` [Compound C0048] the same measures were 209.1%, 89.9% and 245.3%.
For `COc1ccc(S(=O)(=O)N2CCC3(CC2)OCCN3S(=O)(=O)c2ccc(OC)c(OC)c2)cc1OC` [Compound C0049] the same measures were 106.6%, 81.0% and 210.0%.
Turning to `CC(=O)N1CCSC12CCN(S(=O)(=O)c1ccc([N+](=O)[O-])cc1)CC2` [Compound C0050], the “MOR agonist activity” value is, setting by setting: under setting [3], 110.3%; (1 μM + BFNA, Series C-2 table) 59.0%; under setting [4], 127.6%.
For `CC(O)c1ccc(S(=O)(=O)N2CCC3(CC2)OCCN3S(=O)(=O)c2ccc(C(C)O)cc2)cc1` (stereo not drawn) [Compound C0051], the “MOR agonist activity” value reads like this: under setting [1], 94.4%; (1 μM + BFNA, Series C-1 table) 55.9%; under setting [2], 170.4%.
In the same order, the values of `CC(=O)c1ccc(C(=O)N2CCC3(CC2)OCCN3S(=O)(=O)c2ccc(C(C)=O)cc2)cc1` [Compound C0052] are 108.4%, 42.7% and 162.8%.
For `CC(=O)c1ccc(C(=O)N2CCOC23CCN(S(=O)(=O)c2ccc(C(C)=O)cc2)CC3)cc1` [Compound C0053] the same measures were 104.0%, 93.1% and 157.2%.
In the same order, the values of `CC(=O)c1ccc(C(=O)N2CCC3(CC2)OCCN3C(=O)c2ccc(C(C)=O)cc2)cc1` [Compound C0054] are 68.2%, 43.5% and 127.0%.
As for `CC(=O)c1ccc(S(=O)(=O)N2CCC3(CC2)OCCN3S(C)(=O)=O)cc1` [Compound C0056], the “MOR agonist activity” value reads like this: under setting [3], 98.6%; (1 μM + BFNA, Series C-2 table) 86.3%; under setting [4], 193.4%.

The values above are taken from patent US20220233512A1, “INHIBITING AN IMMUNE RESPONSE MEDIATED BY ONE OR MORE OF TLR2, RAGE, CCR5, CXCR4 AND CD4” (priority 2020, published 2022).
